According to patent US20220259593A1, “CONTROL OF MAMMALIAN GENE DOSAGE USING CRISPR” (The Regents of the University of California, priority 2019, published 2022):

System: K562 CRISPRi cells
Test: Perturb-seq pooled growth measurement (sgRNA counts, growth phenotype γ, relative activity)
Format: cell-based, human
Details: sequencing read counts; for Perturb-seq pooled growth sgRNA counts, d5: 5 days of growth (day seven after transduction); for Perturb-seq pooled growth sgRNA counts, d10: 10 days of growth (day twelve after transduction); for Perturb-seq pooled growth sgRNA counts, T0: T0 = day two after transduction
Description: Finally, we sought to use intermediate-activity sgRNAs to explore relationships between expression levels of various genes and the resulting cellular phenotypes. To simultaneously measure gene expression levels and obtain rich phenotypes for a variety of sgRNA series, we used Perturb-seq, an experimental strategy that enables matched capture of the transcriptome and the identity of an expressed sgRNA for each individual cell in pools of cells (27, 31-33) (FIG. 12A). […] In addition to the single-cell transcriptomes, we measured bulk growth phenotypes conferred by sgRNAs in these cells.
To measure the growth rate defects conferred by each sgRNA for comparison with the transcriptional phenotypes, samples of 500,000 transduced cells were taken from the same transduced cell population used in the Perturb-seq experiment on days two, seven, and twelve after transduction. Genomic DNA was extracted using the Nucleospin Blood kit (Macherey-Nagel) and sgRNA amplicons were prepared as described previously and above (19), albeit with no genomic DNA digestion or gel purification, and sequenced on HiSeq 4000 as described above for the other screens. Growth phenotypes were calculated by comparing normalized sgRNA abundances at day seven and twelve to those at day two, as described above. […] Relative sgRNA activities measured at day seven (five days of growth) were used to assign sgRNA activities in further analysis.

Row | Substance | Perturb-seq pooled growth sgRNA counts, d5 | Perturb-seq pooled growth sgRNA counts, d10 | Perturb-seq pooled growth sgRNA counts, T0
1 | GINS1_−_25388381.23-P1P2_14: sgRNA targeting GINS1, GGACTAGAACGAAAGGAGCG, SEQ ID NO: 97 (listed as DNA, chemistry not fully specified) | 5833 | 6093 | 6443
2 | GNB2L1_+_180670873.23-P1P2_00: sgRNA targeting GNB2L1, GTGCAAGGCGGCGGCAGGAG, SEQ ID NO: 55 (listed as DNA, chemistry not fully specified) | 2456 | 1685 | 2280
3 | GNB2L1_+_180670873.23-P1P2_02: sgRNA targeting GNB2L1, GTGCAAGACGGCGGCAGGAG, SEQ ID NO: 59 (listed as DNA, chemistry not fully specified) | 6216 | 7618 | 3839
4 | GNB2L1_+_180670873.23-P1P2_07: sgRNA targeting GNB2L1, GTGCAAGGCGGGGGCAGGAG, SEQ ID NO: 58 (listed as DNA, chemistry not fully specified) | 8322 | 8738 | 9894
5 | GNB2L1_+_180670873.23-P1P2_08: sgRNA targeting GNB2L1, GTGCAAGGTGGCGGCAGGAG, SEQ ID NO: 56 (listed as DNA, chemistry not fully specified) | 25247 | 17083 | 24451
6 | GNB2L1_+_180670873.23-P1P2_13: sgRNA targeting GNB2L1, GTGCAAGGCGGCGGCGGGAG, SEQ ID NO: 57 (listed as DNA, chemistry not fully specified) | 6350 | 5991 | 4708
7 | HSPA5_+_128003624.23-P1P2_00: sgRNA targeting HSPA5, GAGCCGAGTAGGCGACGGTG, SEQ ID NO: 88 (listed as DNA, chemistry not fully specified) | 1756 | 2176 | 5785
8 | HSPA5_+_128003624.23-P1P2_01: sgRNA targeting HSPA5, GAACCGAGTAGGCGACGGTG, SEQ ID NO: 91 (listed as DNA, chemistry not fully specified) | 3124 | 3812 | 7580
9 | HSPA5_+_128003624.23-P1P2_04: sgRNA targeting HSPA5, GAGCCGAGAAGGCGACGGTG, SEQ ID NO: 89 (listed as DNA, chemistry not fully specified) | 3304 | 4282 | 11091
10 | HSPA5_+_128003624.23-P1P2_06: sgRNA targeting HSPA5, GAGCCGAGTAGACGACGGTG, SEQ ID NO: 92 (listed as DNA, chemistry not fully specified) | 17649 | 23714 | 10180
11 | HSPA5_+_128003624.23-P1P2_08: sgRNA targeting HSPA5, GAGCCGAGTGGGCGACGGTG, SEQ ID NO: 90 (listed as DNA, chemistry not fully specified) | 3005 | 3487 | 10148
12 | HSPA9_−_137911079.23-P1P2_00: sgRNA targeting HSPA9, GGAGCTGCGCGATGCGGTGG, SEQ ID NO: 131 (listed as DNA, chemistry not fully specified) | 944 | 835 | 5450
